Measurements reported in patent US20220323426A1, “CHOLINERGIC POTENTIATION OF BINOCULAR VISION” (THE ROYAL INSTITUTION FOR THE ADVANCEMENT OF LEARNING / …, priority 2019, published 2022).
“Also recorded” adds a separate entry of the source.

Columns and labels:
[1] = tested on: replay rivalry criterion and response latency; test: Rivalry replay control (criterion for mixed percept and response latency); type: in vivo, human; conditions: donepezil 5 mg oral vs placebo; F(1,22)=1.4
From the text: To ensure any treatment effects were the result of changes in visual neural activity as opposed to changes in motor or executive function, a rivalry replay control experiment was implemented where participants watched computer-generated videos of simulated binocular rivalry, presented identically to both eyes. […] See FIG. 2 for additional details regarding the plots.
Rivalry replay control. A rivalry replay control condition was used to characterize the criterion for categorizing a percept as mixed and to quantify the latency of binocular rivalry responses (Robertson et al., 2013, 2016). The replay control consisted of computer-generated videos presented binocularly, where the stimulus was oscillated from left-oriented gratings to right-oriented gratings along a continuous scale, such that the midpoint of this oscillation would produce a complete mixture of the two gratings. […]
In addition, the overall rate of rivalry, defined as the total number of switches between the exclusive percepts divided by the run duration (Robertson et al., 2013, 2016) was extracted. In order to quantify the magnitude of the effect of the two treatment conditions relative to baseline, mean posttreatment values were divided by the mean baseline values to obtain post/pre ratios for each dependent variable across both experimental conditions. […]

visual function = conditions: cited from earlier work
[2] = tested on: binocular rivalry dynamics; test: Binocular rivalry task, double-blind placebo-controlled crossover, before and 3 h after donepezil or placebo; type: in vivo, human
From the text: The binocular rivalry task consisted of a dichoptic stimulus where participants viewed a left-tilted grating in one eye and a right-tilted grating in the other for 90 s, continuously indicating via key-press whether they were seeing (1) the left eye's image, (2) the right eye's image, (3) a piecemeal mixture of the two images, or (4) a superimposed mixture of the two images (FIG. 1). This task was used to better characterize the mixed percepts while also encouraging participants not to miscategorize a mixed percept as exclusive.
Binocular rivalry task. A previously developed (Skerswetat et al., 2018) binocular rivalry task was adapted to quantify the fractions and median durations of exclusive, piecemeal, superimposition, and overall mixed percepts (for illustrations, see FIG. 1B). At the beginning of each session, participants were shown images on a document that illustrated the differences between the left-oriented, right-oriented, and superimposition versus piecemeal mixed percepts. Participants were told that they would see a dynamic stimulus during the experiment and that their task was to track what they were seeing, with particular attention to timeliness and accuracy.
Participants were given the option to continuously indicate whether they were seeing either (1) an exclusively left-tilted grating, (2) an exclusively right-tilted grating, (3) a superimposition mixed percept, or (4) a piecemeal mixed percept. Participants used three adjacent keys for the task, using the left to indicate exclusive left-tilt, right for right-tilt, a holding down a combination of the left and right keys for the piecemeal percepts, and the middle key for the superimposition percepts. It was specified that the criterion for exclusive percepts should be ˜90% left or right oriented.
Experimental design and statistical analysis. […] Group assignment was counterbalanced across participants to control for possible session-order effects. The experimenter was not aware of the treatment condition of the two group assignments until after data collection was complete. For safety purposes, the experimenter recorded the participant's systolic blood pressure at baseline and monitored blood pressure levels throughout the experiment.
The general protocol of each experimental block is outlined in FIG. 1A. Each block consisted of two binocular rivalry runs followed by two rivalry replay runs, each lasting 90 s.
Each run (rivalry and replay) began with a dichoptic nonius cross presented inside a 3° oval surrounded by a black-and-white noise (1 cycle/degree) frame (side=10°). The observer was asked to make keypresses to adjust the position of the two frames to calibrate the optimal position for comfortable fusion. After confirmation, the participant was instructed to fixate at a fixation dot (0.2°) and place their hands on the appropriate keys to begin responding to the rivalry task. After a keypress, the dichoptic stimulus appeared and participants began responding to what they were observing on the monitor using the keypress instructions provided at the beginning of each session. Subsequent runs were initiated after a brief break where subjects viewed a mean-gray background screen. […] During the incubation period, subjects were instructed to keep both eyes open and do normal activities such as watching a movie or doing computer work in a well-lit room.
Baseline and posttreatment measurements were drawn from four experimental blocks. A mandatory 2-min break was implemented between each experimental block to prevent fatigue.

In the case of `COc1cc2c(cc1OC)C(=O)C(CC1CCN(Cc3ccccc3)CC1)C2` (stereo not drawn) [donepezil], the “effect on criterion and response latency in rivalry replay control (MANOVA)” value [1] is given as “no observable differences; also recorded: not significant”, the “effect on monocular visual function using perceptual learning” value (visual function; Chung et al., 2017) is given as “not useful to improve monocular visual function” and the “effect on perceptual eye dominance changes from short term patching of one eye” value (visual function; Sheynin et al., 2019) is given as “impede perceptual eye dominance changes”. For the same compound, the “overall effect on binocular rivalry dynamics (repeated measures MANOVA of post/pre values)” value ([2]; donepezil 5 mg oral vs placebo, F(1,22)=2.68, p=0.04) was “significantly altered binocular rivalry dynamics”, the “participants with increases in the fraction of mixed visibility” value ([2]; donepezil 5 mg oral, 3 h, 23 participants) was 19 out of 23 and the “individuals exhibiting donepezil-induced increases of 0.50% in fraction of mixed visibility” value ([2]; donepezil 5 mg oral, 3 h, of the 19 participants with increases) was “eight”. The “decrease of rate of binocular rivalry” value ([2]; po, 5 mg, 3 h) was 36%, the “enhancement of fraction of aggregate mixed visibility during rivalry” value ([2]; po, 5 mg, 3 h) was 43% and the “enhancement of fraction visibility of superimposition percepts” value ([2]; po, 5 mg, 3 h) was 70%. The “increase of median duration of mixed visibility” value ([2]; po, 5 mg, 3 h) was 20%, the “increase of median duration of piecemeal percepts” value ([2]; po, 5 mg, 3 h) was 49% and the “increase of median duration of superimposition percepts” value ([2]; po, 5 mg, 3 h) was 54%. The “reduction of fraction of exclusive percepts” value ([2]; po, 5 mg, 3 h) was 59%, the “reduction of fraction of piecemeal percepts” value ([2]; po, 5 mg, 3 h) was 15% and the “reduction of median duration of exclusive percepts” value ([2]; po, 5 mg, 3 h) was 78%.
